Results published in ChEMBL document CHEMBL4342442, “Usnic Acid Enaminone-Coupled 1,2,3-Triazoles as Antibacterial and Antitubercular Agents” (J Nat Prod, 2020).
Active and inactive are the calls of the source. The rule behind the calls is not given here.

Columns and labels:
[1] = system: CHO-K1; assay: Cytotoxicity against CHOK1 cells assessed as reduction in cell viability after 24 hrs by MTT assay; assay type: cell-based; conditions: Cricetulus griseus, CHO-K1, 24 h
[2] = system: Mycobacterium tuberculosis; assay: Antitubercular activity against Mycobacterium tuberculosis H37Rv assessed as reduction in microbial growth after 7 days by alamar blue assay; assay type: functional; conditions: 168 h
[3] = system: Staphylococcus aureus; assay: Antibacterial activity against Staphylococcus aureus MTCC 96 assessed as diameter of zone of inhibition at 200 ug/ml after 24 hrs by agar well diffusion method; assay type: functional
[4] = system: Staphylococcus epidermidis; assay: Antibacterial activity against Staphylococcus epidermidis assessed as diameter of zone of inhibition at 200 ug/ml after 24 hrs by agar well diffusion method; assay type: functional
[5] = system: Bacillus subtilis; assay: Antibacterial activity against Bacillus subtilis MTCC 441 assessed as diameter of zone of inhibition at 200 ug/ml after 24 hrs by agar well diffusion method; assay type: functional; conditions: for zone of inhibition at 200 µg/mL: MTCC 441, 24 h, read-out: DIZ
[6] = system: Escherichia coli; assay: Antibacterial activity against Escherichia coli MTCC 443 assessed as diameter of zone of inhibition at 200 ug/ml after 24 hrs by agar well diffusion method; assay type: functional
[7] = system: Pseudomonas aeruginosa; assay: Antibacterial activity against Pseudomonas aeruginosa MTCC 741 assessed as diameter of zone of inhibition at 200 ug/ml after 24 hrs by agar well diffusion method; assay type: functional
[8] = system: Klebsiella pneumoniae; assay: Antibacterial activity against Klebsiella pneumoniae MTCC 618 assessed as diameter of zone of inhibition at 200 ug/ml after 24 hrs by agar well diffusion method; assay type: functional
[9] = system: Staphylococcus aureus; assay: Antibacterial activity against Staphylococcus aureus MTCC 96 assessed as reduction in microbial growth after 24 hrs by CLSI based microdilution method; assay type: functional; conditions: MTCC 96, 24 h
[10] = system: Staphylococcus epidermidis; assay: Antibacterial activity against Staphylococcus epidermidis assessed as reduction in microbial growth after 24 hrs by CLSI based microdilution method; assay type: functional
[11] = system: Bacillus subtilis; assay: Antibacterial activity against Bacillus subtilis MTCC 441 assessed as reduction in microbial growth after 24 hrs by CLSI based microdilution method; assay type: functional; conditions: MTCC 441, 24 h
[12] = system: Escherichia coli; assay: Antibacterial activity against Escherichia coli MTCC 443 assessed as reduction in microbial growth after 24 hrs by CLSI based microdilution method; assay type: functional; conditions: MTCC 443, 24 h
[13] = system: Pseudomonas aeruginosa; assay: Antibacterial activity against Pseudomonas aeruginosa MTCC 741 assessed as reduction in microbial growth after 24 hrs by CLSI based microdilution method; assay type: functional; conditions: MTCC 741, 24 h
[14] = system: Klebsiella pneumoniae; assay: Antibacterial activity against Klebsiella pneumoniae MTCC 618 assessed as reduction in microbial growth after 24 hrs by CLSI based microdilution method; assay type: functional; conditions: MTCC 618, 24 h
[15] = Cytotoxicity against HEK cells assessed as reduction in cell viability after 24 hrs by MTT assay; assay type: cell-based, Homo sapiens
[16] = system: Mycobacterium tuberculosis; assay: Antitubercular activity against Mycobacterium tuberculosis H37Rv assessed as log reduction in bacterial population at 10 ug/ml under starvation condition after 7 days by MPN assay; assay type: functional

CO[C@@]12[C@H](COC(N)=O)C3=C(C(=O)C(C)=C(N)C3=O)N1C[C@@H]1N[C@@H]12 [MITOMYCIN]
IC50 [1]: 39.8 µM

CC(=O)c1c(O)c(C)c(O)c2c1OC1=CC(=O)/C(=C(/C)NCc3cn(CC(=O)c4c5ccccc5cc5ccccc45)nn3)C(=O)C12C (stereo unspecified)
MIC [2]: 9.7 µM

CC(=O)c1c(O)c(C)c(O)c2c1OC1=CC(=O)/C(=C(/C)NCc3cn(CC(=O)N4CCN(c5ccccc5F)CC4)nn3)C(=O)C12C (stereo unspecified)
MIC [2]: 9.7 µM

CC(=O)c1c(O)c(C)c(O)c2c1OC1=CC(=O)/C(=C(/C)NCc3cn(CC(=O)N4CCSCC4)nn3)C(=O)C12C (stereo unspecified)
MIC [2]: 44 µM
diameter of the inhibition zone (DIZ) [3]: inactive
diameter of the inhibition zone (DIZ) [4]: inactive
diameter of the inhibition zone (DIZ) [5]: inactive
diameter of the inhibition zone (DIZ) [6]: inactive
diameter of the inhibition zone (DIZ) [7]: inactive
diameter of the inhibition zone (DIZ) [8]: inactive
MIC [9]: > 350 µM
MIC [10]: > 350 µM
MIC [11]: > 350 µM
MIC [12]: > 350 µM
MIC [13]: > 350 µM
MIC [14]: > 350 µM

COc1ccc(C(=O)Cn2cc(CN/C(C)=C3\C(=O)C=C4Oc5c(C(C)=O)c(O)c(C)c(O)c5C4(C)C3=O)nn2)cc1 (stereo unspecified)
MIC [2]: 43.7 µM

CC(=O)c1c(O)c(C)c(O)c2c1OC1=CC(=O)/C(=C(/C)NCc3cn(CC(=O)c4cccc(C(F)(F)F)c4)nn3)C(=O)C12C (stereo unspecified)
MIC [2]: 41 µM
diameter of the inhibition zone (DIZ) [3]: inactive
diameter of the inhibition zone (DIZ) [4]: inactive
zone of inhibition at 200 µg/mL [5]: 15 mm
diameter of the inhibition zone (DIZ) [6]: inactive
diameter of the inhibition zone (DIZ) [7]: inactive
diameter of the inhibition zone (DIZ) [8]: inactive
MIC [9]: > 350 µM
MIC [10]: > 350 µM
MIC [11]: 40.9 µM
MIC [12]: > 350 µM
MIC [13]: > 350 µM
MIC [14]: > 350 µM
IC50 [1]: 25.6 µM
IC50 ([15]; Homo sapiens, HEK293, 24 h, read-out: IC50): 91.3 µM

COc1ccccc1N1CCN(C(=O)Cn2cc(CN/C(C)=C3\C(=O)C=C4Oc5c(C(C)=O)c(O)c(C)c(O)c5C4(C)C3=O)nn2)CC1 (stereo unspecified)
MIC [2]: 9.5 µM
diameter of the inhibition zone (DIZ) [3]: inactive
diameter of the inhibition zone (DIZ) [4]: inactive
zone of inhibition at 200 µg/mL [5]: 10 mm
diameter of the inhibition zone (DIZ) [6]: inactive
diameter of the inhibition zone (DIZ) [7]: inactive
diameter of the inhibition zone (DIZ) [8]: inactive
MIC [9]: > 350 µM
MIC [10]: > 350 µM
MIC [11]: 305 µM
MIC [12]: > 350 µM
MIC [13]: > 350 µM
MIC [14]: > 350 µM
IC50 [1]: 40.4 µM
IC50 [15]: Non-Toxic

CC(=O)c1c(O)c(C)c(O)c2c1OC1=CC(=O)/C(=C(/C)NCc3cn(CC(=O)c4cc5ccccc5s4)nn3)C(=O)C12C (stereo unspecified)
MIC [2]: 41.8 µM

CC(=O)c1c(O)c(C)c(O)c2c1OC1=CC(=O)/C(=C(/C)NCc3cn(CC(=O)c4ccc(-c5ccccc5)cc4)nn3)C(=O)C12C (stereo unspecified)
MIC [2]: 48.2 µM

CC(=O)c1c(O)c(C)c(O)c2c1OC1=CC(=O)/C(=C(/C)NCc3cn(CC(=O)c4cccs4)nn3)C(=O)C12C (stereo unspecified)
MIC [2]: 45.6 µM

CC(=O)c1c(O)c(C)c(O)c2c1OC1=CC(=O)/C(=C(/C)NCc3cn(CC(=O)N4CCN(c5ccccc5)CC4)nn3)C(=O)C12C (stereo unspecified)
MIC [2]: 39.9 µM

CC(=O)c1c(O)c(C)c(O)c2c1OC1=CC(=O)/C(=C(/C)NCc3cn(CC(=O)c4ccc5c(c4)Cc4ccccc4-5)nn3)C(=O)C12C (stereo unspecified)
MIC [2]: 9.9 µM

CN[C@@H]1[C@H](O[C@H]2[C@H](O[C@H]3[C@H](O)[C@@H](O)[C@H](N=C(N)N)[C@@H](O)[C@@H]3N=C(N)N)O[C@@H](C)[C@]2(O)C=O)O[C@@H](CO)[C@H](O)[C@H]1O [STREPTOMYCIN]
zone of inhibition at 200 µg/mL ([3]; MTCC 96, 24 h, read-out: DIZ): 23 mm
zone of inhibition at 200 µg/mL ([4]; read-out: DIZ): 25 mm
zone of inhibition at 200 µg/mL [5]: 24 mm
zone of inhibition at 200 µg/mL ([6]; MTCC 443, 24 h, read-out: DIZ): 23 mm
zone of inhibition at 200 µg/mL ([7]; MTCC 741, 24 h, read-out: DIZ): 28 mm
zone of inhibition at 200 µg/mL ([8]; MTCC 618, 24 h, read-out: DIZ): 26 mm
MIC [9]: 4 µM
MIC [10]: 4 µM
MIC [11]: 8.1 µM
MIC [12]: 8.1 µM
MIC [13]: 8.1 µM
MIC [14]: 8.1 µM

CC(=O)c1c(O)c(C)c(O)c2c1OC1=CC(=O)/C(=C(/C)NCc3cn(CC(=O)c4ccc(Cl)cc4)nn3)C(=O)C12C (stereo unspecified)
MIC [2]: 10.8 µM

CC(=O)c1c(O)c(C)c(O)c2c1OC1=CC(=O)/C(=C(/C)NCc3cn(CC(=O)c4nccs4)nn3)C(=O)C12C (stereo unspecified)
MIC [2]: 45.5 µM

CC(=O)c1c(O)c(C)c(O)c2c1OC1=CC(=O)/C(=C(/C)NCc3cn(CC(=O)c4ccc(F)cc4)nn3)C(=O)C12C (stereo unspecified)
MIC [2]: 11.2 µM
MIC [9]: > 350 µM
MIC [10]: > 350 µM
MIC [11]: 347 µM
MIC [12]: > 350 µM
MIC [13]: > 350 µM
MIC [14]: > 350 µM

CC(=O)c1c(O)c(C)c(O)c2c1OC1=CC(=O)/C(=C(/C)NCc3cn(CC(=O)N4CCN(C(=O)OC(C)(C)C)CC4)nn3)C(=O)C12C (stereo unspecified)
MIC [2]: 38.4 µM

CC(=O)c1c(O)c(C)c(O)c2c1OC1=CC(=O)/C(=C(/C)NCc3cn(CC(=O)c4ccc(C#N)cc4)nn3)C(=O)C12C (stereo unspecified)
MIC [2]: 44.1 µM

O=C(O)c1cn(C2CC2)c2cc(N3CCNCC3)c(F)cc2c1=O [CIPROFLOXACIN]
FC [16]: 1.8
